Like-named read-outs stand apart in the source and are kept apart here.
Columns and labels:
[1] = test system: Fusarium culmorum; experiment: Synergistic mixtures, microtiter test, Fusarium culmorum (Use Example 27); type: cell-based; conditions: single compound
[2] = test system: Colletotrichum truncatum; experiment: Synergistic mixtures, microtiter test, Colletotrichum truncatum (Use Example 28); type: cell-based; conditions: single compound
[3] = test system: Thielaviopsis basicola; experiment: Synergistic mixtures, microtiter test, Thielaviopsis basicola (Use Example 31); type: cell-based; conditions: single compound
[4] = test system: Puccinia recondita; experiment: Synergistic mixtures, greenhouse, preventative control of brown rust on wheat caused by Puccinia recondita (Use Example 34); type: in vivo; conditions: single compound, untreated control 90% disease
Method: These percentages were converted into efficacies. An efficacy of 0 means that the growth level of the pathogens corresponds to that of the untreated control; an efficacy of 100 means that the pathogens were not growing.
The expected efficacies of active compound mixtures were determined using Colby's formula [R. S. Colby, Calculating synergistic and antagonistic responses of herbicide combinations, Weeds 15, 20-22 (1967)] and compared with the observed efficacies. E=x+y−x·y/100 Colby's formula • E expected efficacy, expressed in % of the untreated control, when using the mixture of the compounds A and B at the concentration a and b • x efficacy, expressed in % of the untreated control, when using compound A at a concentration of a • y efficacy, expressed in % of the untreated control, when using compound B at a concentration of b A) Microtiter Tests
The spray solutions were prepared in several steps:
The stock solution were prepared as follows: a mixture of acetone and/or dimethylsulfoxide and the wetting agent/emulsifier Wettol, which is based on ethoxylated alkylphenoles, in a relation (volume) solvent-emulsifier of 99 to 1 was added to 25 mg of the compound to give a total of 10 ml. Water was then added to total volume of 100 ml.
This stock solution was diluted with the described solvent-emulsifier-water mixture to the given concentration. The compounds pyraclostrobin, boscalid and epoxiconazole were used as commercial finished formulations and diluted with water to the stated concentration of the active compound.
The first two developed leaves of pot-grown wheat seedling were sprayed to run-off with an aqueous suspension, containing the concentration of active ingredient or their mixture as described below. The next day the plants were inoculated with spores of Puccinia recondita. To ensure the success the artificial inoculation, the plants were transferred to a humid chamber without light and a relative humidity of 95 to 99% and at temperatures between 20 and 24° C. for 24 h. Then, the plants were cultivated for 6 days in a greenhouse chamber at 20 to 24° C. and a relative humidity between 65 and 70%. The extent of fungal attack on the leaves was visually assessed as % diseased leaf area.

[5] = test system: Pyrenophora teres; experiment: Synergistic mixtures, microtiter test, net blotch pathogen Pyrenophora teres (Use Example 29); type: cell-based; conditions: single compound
[6] = test system: Alternaria solani; experiment: Synergistic mixtures, microtiter test, early blight pathogen Alternaria solani (Use Example 24); type: cell-based; conditions: single compound
[7] = test system: Septoria tritici; experiment: Synergistic mixtures, microtiter test, leaf blotch pathogen Septoria tritici (Use Example 26); type: cell-based; conditions: single compound
[8] = test system: Pyricularia oryzae; type: cell-based; conditions: single compound
[9] = test system: Gaeumannomyces graminis; experiment: Synergistic mixtures, microtiter test, Gaeumannomyces graminis (Use Example 30); type: cell-based; conditions: single compound
[10] = test system: Phytophthora infestans; type: cell-based; conditions: single compound
[11] = test system: Verticillium dahliae; conditions: single compound, 0.25 ppm
[12] = test system: Pyricularia oryzae; type: cell-based; conditions: control =100%, day 7

| Compound | Observed efficacy (%) ([1]; 16 ppm) | Observed efficacy (%) ([4]; 16 ppm) | Observed efficacy (%) ([5]; 0.25 ppm) | Observed efficacy (%) ([6]; 0.063 ppm) | Observed efficacy (%) ([7]; 4 ppm) | Observed efficacy (%) ([8]; 0.063 ppm) | Observed efficacy (%) ([9]; 0.063 ppm) | Observed efficacy (%) ([2]; 4 ppm) | Observed efficacy (%) ([4]; 1 ppm) | Observed efficacy (%) ([4]; 4 ppm) | further results |
| --- | --- | --- | --- | --- | --- | --- | --- | --- | --- | --- | --- |
| COc1cc(CNS(=O)(=O)c2ccc(Oc3ccc(Cl)cn3)cc2)ccn1 [Example 74] | 1 | 44 | 33 | 0 | 58 |  |  |  |  |  | Observed efficacy (%) ([2]; 16 ppm): 35%; Observed efficacy (%) ([3]; 1 ppm): 32% |
| Cc1nccc(CNS(=O)(=O)c2ccc(Oc3ncccc3C(F)(F)F)cc2)c1C [Example 28] | 1 |  | 4 |  | 29 | 27 | 29 | 20 | 0 |  | Observed efficacy (%) ([8]; 0.25 ppm): 52%; Observed efficacy (%) ([3]; 16 ppm): 23%; Observed efficacy (%) ([10]; 0.016 ppm): 10% |
| COc1cc(CNS(=O)(=O)c2ccc(Oc3ncc(C(F)(F)F)cc3C)cc2)ccn1 [Example 160] | 3 |  | 11 |  | 55 |  |  | 37 | 0 | 0 | Observed efficacy (%) ([8]; 0.25 ppm): 60%; Observed efficacy (%) ([3]; 1 ppm): 14%; Observed efficacy (%) ([10]; 1 ppm): 17% |
| COc1cc(CNS(=O)(=O)c2ccc(Oc3cccc(C)n3)cc2)ccn1 [Example 45] | 2 | 0 |  | 1 | 50 | 30 |  | 25 |  | 0 | Observed efficacy (%) ([5]; 1 ppm): 25% |
| Fc1ccc([C@]2(Cn3cncn3)O[C@H]2c2ccccc2Cl)cc1 [Epoxiconazol, reference compound] |  |  |  |  |  | 0 |  |  | 33 |  | Observed efficacy (%) ([9]; 0.004 ppm): 2%; Observed efficacy (%) ([4]; 0.063 ppm): 0%; Observed efficacy (%) ([4]; 0.25 ppm): 0%; Observed efficacy (%) ([10]; 0.001 ppm): 0% |
| O=C1C2CC=CCC2C(=O)N1SC(Cl)(Cl)Cl (stereo not shown) [Captan, reference compound] |  |  |  |  |  | 0 | 42 |  |  |  | Observed efficacy (%) ([1]; 4 ppm): 39%; Observed efficacy (%) [11]: 26%; Observed efficacy (%) ([9]; 0.016 ppm): 12%; Observed efficacy (%) ([3]; 0.25 ppm): 40%; Observed efficacy (%) ([5]; 0.016 ppm): 5%; Observed efficacy (%) ([5]; 0.063 ppm): 16%; Observed efficacy (%) ([7]; 1 ppm): 31%; Observed efficacy (%) ([10]; 0.004 ppm): 0%; Observed efficacy (%) ([10]; 0.063 ppm): 7%; Observed efficacy (%) ([10]; 0.25 ppm): 3% |
| COc1cc(CNS(=O)(=O)c2ccc(Oc3ccccc3)cc2)ccn1 [comparative example 1, reference compound] |  |  |  |  |  |  |  |  |  |  | growth in [%] at 31 ppm [12]: 97% |
| COc1cnccc1CNS(=O)(=O)c1ccc(Oc2nccc(C(F)(F)F)n2)cc1 [Example 64] | 0 | 0 | 5 | 0 |  |  |  |  |  | 0 | Observed efficacy (%) ([8]; 1 ppm): 12%; Observed efficacy (%) ([3]; 16 ppm): 20% |
| COc1cc(CNS(=O)(=O)c2ccc(Oc3ccc(C(F)(F)F)cn3)cc2)ccn1 [Example 12] | 3 |  |  | 6 | 47 | 45 |  |  | 22 |  | Observed efficacy (%) ([9]; 0.016 ppm): 30%; Observed efficacy (%) ([2]; 16 ppm): 50%; Observed efficacy (%) ([4]; 0.25 ppm): 0%; Observed efficacy (%) ([5]; 0.063 ppm): 25% |
| COc1cc(CNS(=O)(=O)c2ccc(Oc3ccccn3)cc2)ccn1 [Example 7] | 7 |  | 17 |  |  | 1 | 9 | 20 |  |  | Observed efficacy (%) ([9]; 0.25 ppm): 51%; Observed efficacy (%) ([5]; 1 ppm): 28%; Observed efficacy (%) ([6]; 0.016 ppm): 11%; growth in [%] at 31 ppm [12]: 53%; Observed efficacy (%) ([10]; 0.016 ppm): 11% |

From patent publication US8299262B2, “Pyridylmethyl-sulfonamide compounds” (BASF SE, priority 2007, dated 2012)
